Earlier results, collected in publication PMC7211198, “Phase 1b study of a small molecule antagonist of human chemokine (C-C motif) receptor 2 (PF-04136309) in combination with nab-paclitaxel/gemcitabine in first-line treatment of metastatic pancreatic ductal adenocarcinoma” (Investigational New Drugs, 2019).
Where two headings read alike, the source gives them in different places.

Tested on: advanced pancreatic cancer
Details: cited from earlier work

Nc1ccn([C@@H]2O[C@H](CO)[C@@H](O)C2(F)F)c(=O)n1 [gemcitabine]
Observed rate of pneumonitis (gemcitabine combined with nab-paclitaxel): up to 4%
Observed rate of pneumonitis (patients treated with gemcitabine): approximately 1%
